Key:
[1] = target: T1, human glucocorticoid receptor (GR) complex (Homo sapiens, UniProt P04150); test: Glucocorticoid receptor competitive binding assay (fluorescence polarization, TAMRA-labeled dexamethasone probe); settings: result in words only; IC50 values not given
T1 construct: made in house; host or cells: insect cells (baculovirus expression), used as crude lysate
T1 sequence (P04150 1-777): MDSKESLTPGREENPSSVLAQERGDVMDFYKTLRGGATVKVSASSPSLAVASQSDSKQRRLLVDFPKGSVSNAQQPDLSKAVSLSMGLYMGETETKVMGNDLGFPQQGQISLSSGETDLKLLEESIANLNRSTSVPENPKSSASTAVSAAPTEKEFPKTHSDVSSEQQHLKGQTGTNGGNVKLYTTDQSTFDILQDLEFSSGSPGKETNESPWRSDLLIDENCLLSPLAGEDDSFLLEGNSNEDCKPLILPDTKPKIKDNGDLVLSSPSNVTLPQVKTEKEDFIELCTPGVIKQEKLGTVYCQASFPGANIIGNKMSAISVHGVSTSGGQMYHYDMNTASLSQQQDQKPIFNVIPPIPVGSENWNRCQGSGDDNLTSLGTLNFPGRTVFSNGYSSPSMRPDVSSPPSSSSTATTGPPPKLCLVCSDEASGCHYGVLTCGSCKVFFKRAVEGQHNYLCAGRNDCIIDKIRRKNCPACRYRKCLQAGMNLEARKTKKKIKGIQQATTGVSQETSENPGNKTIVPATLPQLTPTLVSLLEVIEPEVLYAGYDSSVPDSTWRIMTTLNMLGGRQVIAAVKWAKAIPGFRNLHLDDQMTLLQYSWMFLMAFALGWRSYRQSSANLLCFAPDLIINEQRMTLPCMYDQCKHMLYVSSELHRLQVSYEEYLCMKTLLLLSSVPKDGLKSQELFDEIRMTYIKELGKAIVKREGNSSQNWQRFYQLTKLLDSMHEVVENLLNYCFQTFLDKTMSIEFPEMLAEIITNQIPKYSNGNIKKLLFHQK
Description: Compounds of the invention were evaluated for binding to the steroid receptor by a fluorescence polarization competitive binding assay.
A. Glucocorticoid Receptor Competitive Binding Assay
Step 1. Characterization of the Fluorescent Probe
The wavelengths for maximum excitation and emission of the fluorescent probe should first be measured. An example of such a probe is rhodamine (TAMRA)-labeled dexamethasone.
The affinity of the probe for the steroid receptor was then determined in a titration experiment. The fluorescence polarization value of the probe in assay buffer was measured on an SLM-8100 fluorometer using the excitation and emission maximum values described above. Aliquots of expression vector lysate were added and fluorescence polarization was measured after each addition until no further change in polarization value was observed. Non-linear least squares regression analysis was used to calculate the dissociation constant of the probe from the polarization values obtained for lysate binding to the probe.
Step 2. Screening for Inhibitors of Probe Binding
This assay uses fluorescence polarization (FP) to quantitate the ability of test compounds to compete with tetramethyl rhodamine (TAMRA)-labeled dexamethasone for binding to a human glucocorticoid receptor (GR) complex prepared from an insect expression system. The assay buffer was: 10 mM TES, 50 mM KCl, 20 mM Na2MoO4.2H2O, 1.5 mM EDTA, 0.04% w/v CHAPS, 10% v/v glycerol, 1 mM dithiothreitol, pH 7.4. Test compounds were dissolved to 1 mM in neat DMSO and then further diluted to 10× assay concentration in assay buffer supplemented with 10% v/v DMSO. Test compounds were serially diluted at 10× assay concentrations in 10% DMSO-containing buffer in 96-well polypropylene plates. Binding reaction mixtures were prepared in 96-well black Dynex microtiter plates by sequential addition of the following assay components to each well: 15 μL of 10× test compound solution, 85 μL of GR-containing baculovirus lysate diluted 1:170 in assay buffer, and 50 μL of 15 nM TAMRA-labeled dexamethasone. Positive controls were reaction mixtures containing no test compound; negative controls (blanks) were reaction mixtures containing 0.7 μM to 2 μM dexamethasone. […] IC50 values were determined by iterative non-linear curve fitting of the FP signal data to a 4-parameter logistic equation.

[2] = tested on: glucocorticoid receptor; settings: in one or more of the above assays; assay not specified
Description: Evaluation of agonist or antagonist activity of compounds binding to the glucocorticoid receptor may be determined by any of the assays.
3. Modulation of Tyrosine Aminotransferase (TAT) Induction in Rat Hepatoma Cells
Testing of compounds for agonist or antagonist activity in induction of tyrosine aminotransferase (TAT) in rat hepatoma cells.
H4-II-E-C3 cells were incubated overnight in 96 well plates (20,000 cells/100 μL/well) in MEM medium containing 10% heat inactivated FBS and 1% nonessential amino acids. On the next day, cells were stimulated with the indicated concentrations of dexamethasone or test compound (dissolved in DMSO, final DMSO concentration 0.2%) for 18 hours. Control cells were treated with 0.2% DMSO. After 18 hours, the cells were lysed in a buffer containing 0.1% Triton X-100 and the TAT activity was measured in a photometric assay using tyrosine and alpha-ketoglutarate as substrates.
For measuring antagonist activity, the hepatoma cells were pre-stimulated by addition of dexamethasone (concentration ranges from 3×10^−9 M to 3×10^−8 M) shortly before the test compound was applied to the cells.
4. Modulation of MMTV-Luc Induction in HeLa Cells
Testing of compounds for agonist or antagonist activity in stimulation of MMTV-(mouse mammary tumor virus) promoter in HeLa cells. […]

Compound | activity in the GR binding assay [1] | activity as antagonists of the glucocorticoid receptor function [2]
CC(C)(CC(O)(Cc1ccccc1)C(=O)Nc1ccc2c(c1)COC2=O)c1ccccc1 (stereo not drawn) [2-Benzyl-2-hydroxy-4-methyl-4-phenylpentanoic acid (1-oxo-1,3-dihydroisobenzofuran-5-yl)amide] | potent activity | activity as antagonists
CC(C)(CC(O)(CC1CCCCC1)C(=O)Nc1ccc2c(c1)COC2=O)c1ccccc1 (stereo not drawn) [2-Cyclohexylmethyl-2-hydroxy-4-methyl-4-phenylpentanoic acid (1-oxo-1,3-dihydroisobenzofuran-5-yl)amide] | potent activity | activity as antagonists
CC(C)(CC(O)(CCc1ccccc1)C(=O)Nc1ccc2c(c1)COC2=O)c1cc(F)ccc1O (stereo not drawn) [4-(5-Fluoro-2-hydroxyphenyl)-2-hydroxy-4-methyl-2-phenethylpentanoic acid (1-oxo-1,3-dihydroisobenzofuran-5-yl)amide] | potent activity | 
COc1ccc(F)cc1C(C)(C)CC(O)(Cc1ccccc1C)C(=O)Nc1ccc2c(c1)COC2=O (stereo not drawn) [4-(5-Fluoro-2-methoxyphenyl)-2-hydroxy-4-methyl-2-(2-methylbenzyl)pentanoic acid (1-oxo-1,3-dihydroisobenzofuran-5-yl)amide] | potent activity | 

Source: patent US7189758B2, “Glucocorticoid mimetics, methods of making them, pharmaceutical formulations, and uses thereof” (Boehringer Ingelheim Pharmaceuticals, Inc., priority 2002, dated 2007)
